Activity calls are given as the source filed them. How the calls were made is not given here.

The series in a line: Cytotoxicity activity against human HepG2 cells assessed by CellTiter-Glo luminescent cell viability assay. The format is toxicity, cell-based. Set-up: assay stage confirmatory assay, source tissue liver. The conditions noted are these: HepG2 cells, read-out: IC50 relative. (In general: ATP-based viability assays read luminescence as a measure of living cells.)
Regarding `CN1C(=O)c2cccc3c(S(=O)(=O)NC4CCCCC4)ccc1c23`, the CC50 is 50 µM (inactive).
As for `COc1ccc(NS(=O)(=O)c2ccc3onc(C(=O)N4CCCC4)c3c2)cc1`, the figure is 7.1 µM (active).
Consider `CN(C)CCNC(=O)Cn1c(-c2ccccc2)nn(-c2ccc(Cl)cc2)c1=O`, for which the CC50 was 6.5 µM (active).
`O=c1cnnc(NCc2ccccc2)n1Cc1ccccc1`: the CC50 is 4.5 µM (active).
On to `CCCCc1ccc(-c2cnn3cccnc23)cc1`, for which the CC50 is 8.3 µM (inactive).
As to `Cc1cccnc1N1CCN(c2cc([C@H]3C[C@@H](N)C3)nc(N)n2)CC1`, the CC50 was 11.1 µM (active).
Under `CC(C)NC(=O)N1CC(Oc2ccc(-c3noc(C4CC4)n3)cc2)C1` stands 2.6 µM (active); under `CCn1c(=O)c2sc(N3CCCC3)nc2n(CC(=O)Nc2ccc(OC)cc2)c1=O`, 31.4 µM (inactive); under `CCC(C)NC(=O)N1CC(Oc2ccc(-c3noc(C4CCOCC4)n3)cc2)C1` (configuration not stated), 4.8 µM (active).
As for `O=C1c2sc3nccc(=O)n3c2C(=O)N1Cc1ccccc1`, the figure is 10.8 µM (active).
On to `Cn1ncc(N2CCC(C(=O)N3CCN(CCOc4ccc(Cl)cc4)CC3)C2)cc1=O` (configuration not stated), for which the CC50 is 5 µM (active).
Under `COc1ccc(C(=O)N[C@@H]2CN(Cc3ccccc3)C[C@H]2CN(C)C)cc1` stands 7.2 µM (active).
As to `CC1CCN(S(=O)(=O)c2ccc(-c3nnc(C(=O)NCCCN4CCCCCC4)o3)cc2)CC1`, the CC50 was 15.6 µM (inactive).
Under `COc1ccc(-c2nc(CC3CCN(C(=O)NC(C)(C)C)C3)no2)cc1` (configuration not stated) stands 7.8 µM (active).
As for `CCN(CC)C(=O)N1CC(Oc2ccc(-c3noc(C4CCOCC4)n3)cc2)C1`, the CC50 is 2.3 µM (active).
As to `CCN(CC)C(=O)N1CC(Oc2ccc(-c3noc(-c4cccnc4)n3)cc2)C1`, the CC50 is 2.2 µM (active).
Under `CCCNC(=O)N1CC(Oc2ccc(-c3noc(C4CC4)n3)cc2)C1` stands 6.1 µM (active); under `NCc1ccc(C(=O)NC2CCc3c[nH]nc3C2)cc1` (configuration not stated), 9.4 µM (active); under `CC(C)CCNC(=O)COc1ccc(-c2nc(C(C)C)no2)cc1`, 3.2 µM (active).
As for `CCc1ccc(S(=O)(=O)N2CCN(c3ccc(C(C)=O)cc3)CC2)cc1`, the figure is 50 µM (inactive); as for `CN1CCC(NC(=O)c2ccc3c(c2)n(Cc2ccccc2)c(=O)c2ccnn23)CC1`, 9.8 µM (active); as for `CC1=C(c2ccccc2)C1C(=O)NC1(C(N)=O)CCCCC1` (configuration not stated), 14.7 µM (active).
`CC(=O)Nc1ccc(NC(=O)c2c(O)c3sccc3n(Cc3ccccc3)c2=O)cc1`: the CC50 is 50 µM (inactive).
As for `Cc1ccc(-c2cc3c(=O)n(Cc4noc(CN5CCN(C)CC5)n4)ccn3n2)cc1`, the figure is 9.4 µM (active); as for `CC(C)NC(=O)N1CC(Oc2ccc(-c3noc(C4CCOCC4)n3)cc2)C1`, 4.1 µM (active); as for `COc1ccc(NS(=O)(=O)c2ccc3onc(C(=O)N4CCCC4)c3c2)cc1OC`, 0.6 µM (active).
On to `CCCNC(=O)N1CC(Oc2ccc(-c3noc(-c4ccncc4)n3)cc2)C1`, for which the CC50 was 3.1 µM (active).
Consider `CCN1CCN(CCNC(=O)c2cn3ccnc(-c4ccc(C)cc4)c3n2)CC1`, for which the CC50 is 29 µM (inactive).
Under `CCC(C)NC(=O)N1CC(Oc2ccc(-c3noc(-c4ccncc4)n3)cc2)C1` (configuration not stated) stands 3.8 µM (active); under `Cc1cc(C(=O)Nc2ccc(Cl)cc2F)nc2ccnn12`, 2.4 µM (inactive).
For the molecule `CC(C)c1noc(-c2ccc(OCC(=O)NC(C)(C)C)cc2)n1`, the CC50 was 8.2 µM (active).
As for `CC(NC(=O)N1CCCN(C)C2(CCNCC2)C1)c1ccccc1Cl` (configuration not stated), the figure is 4.3 µM (active).
In the case of `COc1ccc(C(=O)N[C@@H]2CN(Cc3ccccc3)C[C@H]2CN(C)C)c(OC)c1`, the CC50 was 11.1 µM (active).
Under `Cc1noc(C2CN(C3CCCC3)CCCN2C(=O)c2ccccc2)n1` (configuration not stated) stands 6.6 µM (active); under `CCCNC(=O)N1CC(Oc2ccc(-c3noc(-c4cccnc4)n3)cc2)C1`, 6 µM (active).
As for `COc1ccc(OC)c(C(O)CN2CCN(c3cccc(C)c3C)CC2)c1` (configuration not stated), the figure is 9.9 µM (active); as for `O=C(CC1CCCN(c2cn[nH]c(=O)c2)C1)Nc1cccc(Cl)c1` (configuration not stated), 8.1 µM (active); as for `O=C(c1ccncc1)N1CCC2(CC1)CC(Cc1nc(-c3ccncc3)no1)CCO2` (configuration not stated), 5.2 µM (active).
Under `CCC(C)NC(=O)N1CC(Oc2ccc(-c3noc(-c4cccnc4)n3)cc2)C1` (configuration not stated) stands 4.5 µM (active).
Turning to `CN(Cc1cc(=O)n2cccc(O)c2n1)CC1(c2ccccc2)CC1(C)C` (configuration not stated), the CC50 was 2.9 µM (active).
In the case of `COc1ccc(NC(=O)Nc2ccc3nc(S(C)(=O)=O)sc3c2)cc1`, the CC50 was 17.5 µM (inactive).
Consider `CC(C)CNC(=O)N1CC(Oc2ccc(-c3noc(-c4cccnc4)n3)cc2)C1`, for which the CC50 is 5.4 µM (active).
Under `CC(C)CNC(=O)N1CC(Oc2ccc(-c3noc(C4CCOCC4)n3)cc2)C1` stands 4.3 µM (active); under `CC(=O)c1ccc(N2CCN(S(=O)(=O)c3ccc4onc(C(=O)N5CCCC5)c4c3)CC2)cc1`, 0.9 µM (active).
`CN(C)CC1CCN(Cc2[nH]c3ccccc3c2Cl)C1` (configuration not stated): the CC50 is 5.8 µM (active).
As for `CS(=O)(=O)N1CCc2ccc(NC(=O)Nc3cccc(C#N)c3)cc21`, the figure is 9.7 µM (active).
Under `COc1ccc(NC(=O)Cn2sc3ccccc3c2=O)cc1OC` stands 12.2 µM (active); under `Cc1ccc2nccc(N3CCCC(CCC(=O)N(C)C)C3)c2c1` (configuration not stated), 8.3 µM (active); under `O=C(NCc1ccccc1)c1c(O)c2cccnc2n(Cc2ccccc2)c1=O`, 6.9 µM (active).
Under `CCC(C)NC(=O)N1CC(Oc2ccc(-c3noc(C4CC4)n3)cc2)C1` (configuration not stated) stands 3.5 µM (active); under `O=C(NC1CCCC1)N1CC(Oc2ccc(-c3noc(-c4cccnc4)n3)cc2)C1`, 6.9 µM (active); under `CC(C)CNC(=O)COc1ccc(-c2nc(C(C)C)no2)cc1`, 8.1 µM (active).
For `CCCNC(=O)N1CC(Oc2ccc(-c3noc(C4CCOCC4)n3)cc2)C1`, the CC50 was 3.7 µM (active).
Turning to `Cc1cc(F)ccc1N1CCC(NCC(O)c2cccc(O)c2)CC1` (configuration not stated), the CC50 was 10.1 µM (active).
As for `O=C(Nc1nc(-c2cccnc2)cs1)c1ccccn1`, the CC50 was 11.6 µM (active).
Under `Cc1cccc(C(=O)N[C@@H]2CN(Cc3ccccc3)C[C@H]2CN(C)C)c1` stands 10 µM (active); under `Cc1ccc(NC(=O)CCN(C)CC2CCN(C)C2(C)C)cc1F` (configuration not stated), 9.7 µM (active).
As for `COc1cccc(Cn2c(=O)c3ccnn3c3ccc(C(=O)NCCN(C)C)cc32)c1`, the figure is 12.3 µM (active); as for `NCCCNc1nc(-c2ccccc2)nc2ccccc12`, 11.9 µM (active).
As for `CC(C)NC(=O)N1CC(Oc2ccc(-c3noc(-c4cccnc4)n3)cc2)C1`, the figure is 3.4 µM (active); as for `Cn1c(CNC(=O)c2ccc3c(c2)n(C)c(=O)c2ccnn23)nc2ccccc21`, 16.4 µM (inactive); as for `CCN1CCN(Cc2cc(=O)oc3cc(-c4ccccc4)c(O)cc23)CC1`, 3.8 µM (active).

Source of the values: ChEMBL document CHEMBL5303711, “ECBD screening data for assay EOS300108” (2023).
